“And” between values parts separate entries of the source, which are not always exact repeats. Equal entries are not always repeated.
How the values were obtained:
NR3A2 (ERβ) = conditions: cited from earlier work
ABL1 = target: T1, ABL1 (Homo sapiens, UniProt P00519); assay: Liability panel screening by DSF: ABL1; type: binding; conditions: DSF, 20 µM, n=2; read-out: Mean ΔTM ABL1
T1 construct: made in house
Method in brief: (§1)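 Thermal shift: in-house recombinant protein at 2 µM in 10 mM HEPES pH 7.5 with 500 mM NaCl, SYPRO Orange 1:1000, heated at 3 °C/min to 85 °C in technical duplicates. Tm is the Boltzmann inflection point, reported as ∆Tm in K.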

HEK293T cells [1] = assay: Cytotoxicity: apoptosis induction (caspase-3/7 DEVD fluorogenic DNA dye); conditions: 1 µM; HEK293T, 24 h; apoptotic cell count normalized to 0.1% DMSO; single replicates
FGFR3 = target: T2, FGFR3 (Homo sapiens, UniProt P22607); assay: Liability panel screening by DSF: FGFR3; type: binding; conditions: DSF, 20 µM, n=2; read-out: Mean ΔTM FGFR3
T2 construct: made in house
T2 sequence (P22607 23-806, species assumed): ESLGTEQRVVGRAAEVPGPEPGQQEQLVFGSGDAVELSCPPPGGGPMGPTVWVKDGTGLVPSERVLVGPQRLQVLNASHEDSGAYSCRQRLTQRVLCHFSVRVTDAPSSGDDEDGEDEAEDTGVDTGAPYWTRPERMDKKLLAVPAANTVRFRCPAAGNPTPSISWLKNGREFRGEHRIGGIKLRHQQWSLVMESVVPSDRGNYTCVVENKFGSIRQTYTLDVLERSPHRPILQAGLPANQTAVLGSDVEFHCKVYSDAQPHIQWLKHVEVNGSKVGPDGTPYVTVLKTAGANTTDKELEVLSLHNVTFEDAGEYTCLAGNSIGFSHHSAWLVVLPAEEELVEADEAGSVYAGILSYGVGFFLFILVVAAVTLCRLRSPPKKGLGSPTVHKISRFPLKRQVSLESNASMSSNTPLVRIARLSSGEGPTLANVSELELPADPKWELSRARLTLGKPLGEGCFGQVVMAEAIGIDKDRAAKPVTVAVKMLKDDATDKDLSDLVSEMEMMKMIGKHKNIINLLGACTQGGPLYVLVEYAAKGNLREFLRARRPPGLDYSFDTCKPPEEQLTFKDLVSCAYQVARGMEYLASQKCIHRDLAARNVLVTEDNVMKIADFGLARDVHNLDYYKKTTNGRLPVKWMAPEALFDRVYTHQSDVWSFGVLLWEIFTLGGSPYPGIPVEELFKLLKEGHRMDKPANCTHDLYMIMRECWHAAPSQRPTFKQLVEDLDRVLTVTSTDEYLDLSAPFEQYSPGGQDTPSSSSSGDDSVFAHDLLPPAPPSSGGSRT
Method in brief: as §1

[2] = test system: ATF6 activity in Hela ATF6 reporter cells; assay: Endoplasmic reticulum stress assay (ATF6 Renilla luciferase reporter, tunicamycin); type: cell-based; conditions: Homo sapiens, HeLa, 1 µM, single replicates n=1 to n=5; read-out: ER stress [rel. ATF6 activity]
Method in brief: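 ER stress was induced by 100 ng/mL tunicamycin added 4 h after compound (0.1% DMSO) to HeLa ATF6 reporter cells. After 18 h more, Renilla luciferase signal was read and expressed relative to DMSO control, n=5 biological replicates.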

[3] = test system: NF-κB activity in HEK293 NF-κB reporter cells; assay: NF-kB activity assay (GFP reporter, ionomycin/PMA); type: cell-based; conditions: for Mean NFκB response: n=3; for NF-κB activity (inflammatory response to ionomycin/PMA): HEK293 NF-κB reporter cells, compounds at recommended concentrations, imaged over 24 h, n = 3
Method in brief: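 Reporter readout: GFP-expressing cells normalized to confluence, imaged every 90 min across 24 h after ionomycin (100 ng/mL)/PMA (10 ng/mL) stimulation of HEK293 cells pre-treated 4 h with compound (0.1% DMSO); triplicate independent experiments.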

MAPK1 = target: T3, MAPK1 (Homo sapiens, UniProt P28482); assay: Liability panel screening by DSF: MAPK1; type: binding; conditions: DSF, 20 µM, n=2; read-out: Mean ΔTM MAPK1
T3 construct: made in house
T3 sequence (P28482 whole entry, species assumed): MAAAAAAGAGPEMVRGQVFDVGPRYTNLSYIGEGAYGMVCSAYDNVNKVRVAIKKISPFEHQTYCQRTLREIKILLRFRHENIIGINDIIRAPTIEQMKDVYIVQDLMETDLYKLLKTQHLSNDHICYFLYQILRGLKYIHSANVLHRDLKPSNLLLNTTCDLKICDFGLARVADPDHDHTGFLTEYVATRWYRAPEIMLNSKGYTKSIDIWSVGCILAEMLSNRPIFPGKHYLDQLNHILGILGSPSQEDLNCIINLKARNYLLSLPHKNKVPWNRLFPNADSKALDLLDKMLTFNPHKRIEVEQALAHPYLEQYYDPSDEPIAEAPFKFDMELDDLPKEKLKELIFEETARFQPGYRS
Method in brief: as §1

GSK3B = target: T4, GSK3B (Homo sapiens, UniProt P49841); assay: Liability panel screening by DSF: GSK3B; type: binding; conditions: DSF, 20 µM, n=2; read-out: Mean ΔTM GSK3B
T4 construct: made in house
T4 sequence (P49841 whole entry, species assumed): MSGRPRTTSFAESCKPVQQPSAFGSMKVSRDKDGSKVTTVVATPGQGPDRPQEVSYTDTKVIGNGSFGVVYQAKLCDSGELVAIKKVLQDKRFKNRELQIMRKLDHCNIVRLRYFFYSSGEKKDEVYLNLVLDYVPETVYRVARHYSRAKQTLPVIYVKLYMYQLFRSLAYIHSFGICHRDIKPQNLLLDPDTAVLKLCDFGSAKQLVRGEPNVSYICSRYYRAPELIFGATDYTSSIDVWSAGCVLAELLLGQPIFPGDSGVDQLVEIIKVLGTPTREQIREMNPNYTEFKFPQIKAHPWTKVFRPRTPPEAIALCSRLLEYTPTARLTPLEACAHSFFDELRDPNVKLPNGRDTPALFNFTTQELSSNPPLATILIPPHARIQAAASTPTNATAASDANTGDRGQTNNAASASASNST

CDK2 = target: T5, CDK2 (Homo sapiens, UniProt P24941); assay: Liability panel screening by DSF: CDK2; type: binding; conditions: DSF, 20 µM, n=2; read-out: Mean ΔTM CDK2
T5 construct: made in house
Method in brief: as §1

HEK293T cells [4] = assay: Cytotoxicity: necrosis induction (red fluorescent dye for permeable plasma membranes); type: cell-based; conditions: 1 µM, 24 h, necrotic cell count normalized to 0.1% DMSO, single replicates;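 also: compounds applied in DMEM high glucose with 0.1% FCS and 0.1% DMSO, necrotic HEK293T cells counted by red staining of cells whose plasma membranes had become permeable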
NR3A1 (ERα) = conditions: cited from earlier work
TRIM24 = target: T6, TRIM24 (Homo sapiens, UniProt O15164); assay: Liability panel screening by DSF: TRIM24; type: binding; conditions: DSF, 20 µM, n=2; read-out: Mean ΔTM TRIM24
T6 construct: This panel comprised ten highly ligandable kinases and bromodomains; made in house
T6 sequence (O15164 899-1004 limits assumed): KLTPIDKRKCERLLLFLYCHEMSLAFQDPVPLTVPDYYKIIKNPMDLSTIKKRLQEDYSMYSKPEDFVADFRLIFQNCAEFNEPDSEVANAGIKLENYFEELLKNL
Method in brief: as §1

AURKA = target: T7, AURKA (Homo sapiens, UniProt O14965); assay: Liability panel screening by DSF: AURKA; type: binding; conditions: DSF, 20 µM, n=2; read-out: Mean ΔTM AURKA
T7 construct: made in house
T7 sequence (O14965 1-403): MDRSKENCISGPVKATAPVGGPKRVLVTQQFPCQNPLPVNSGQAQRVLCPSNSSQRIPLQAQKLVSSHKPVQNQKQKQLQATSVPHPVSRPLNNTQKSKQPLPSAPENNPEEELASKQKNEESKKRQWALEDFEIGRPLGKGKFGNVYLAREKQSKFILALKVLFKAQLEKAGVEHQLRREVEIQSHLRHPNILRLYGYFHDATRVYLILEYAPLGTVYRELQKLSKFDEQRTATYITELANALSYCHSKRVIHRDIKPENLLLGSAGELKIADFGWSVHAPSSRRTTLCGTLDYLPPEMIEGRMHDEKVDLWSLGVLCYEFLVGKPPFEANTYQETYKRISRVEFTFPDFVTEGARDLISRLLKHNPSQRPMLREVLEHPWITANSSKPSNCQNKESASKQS
Method in brief: as §1

CSNK1D = target: T8, CSNK1D (Homo sapiens, UniProt P48730); assay: Liability panel screening by DSF: CSNK1D; type: binding; conditions: DSF, 20 µM, n=2; read-out: Mean ΔTM CSNK1D
T8 construct: made in house
T8 sequence (P48730 whole entry, species assumed): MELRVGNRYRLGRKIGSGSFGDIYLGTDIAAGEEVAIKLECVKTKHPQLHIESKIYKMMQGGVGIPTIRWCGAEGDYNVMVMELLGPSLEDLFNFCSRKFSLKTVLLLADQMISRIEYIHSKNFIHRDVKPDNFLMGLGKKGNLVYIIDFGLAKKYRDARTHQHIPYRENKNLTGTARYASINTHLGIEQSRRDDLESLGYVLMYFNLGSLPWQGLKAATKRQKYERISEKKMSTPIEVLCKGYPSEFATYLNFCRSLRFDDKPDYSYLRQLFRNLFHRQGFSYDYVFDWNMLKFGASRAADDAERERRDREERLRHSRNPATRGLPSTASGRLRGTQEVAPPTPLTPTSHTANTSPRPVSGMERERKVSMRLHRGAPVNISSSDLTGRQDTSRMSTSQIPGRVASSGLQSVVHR
Method in brief: as §1

BRPF1 = target: T9, BRPF1 (Homo sapiens, UniProt P55201); assay: Liability panel screening by DSF: BRPF1; type: binding; conditions: DSF, 20 µM, n=2; read-out: Mean ΔTM BRPF1
T9 construct: This panel comprised ten highly ligandable kinases and bromodomains; made in house
T9 sequence (P55201 628-732 limits assumed): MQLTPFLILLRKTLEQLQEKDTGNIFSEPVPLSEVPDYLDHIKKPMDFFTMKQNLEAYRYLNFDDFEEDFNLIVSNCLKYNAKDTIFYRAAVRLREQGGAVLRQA
Method in brief: as §1

BRD4 = target: T10, BRD4 (Homo sapiens, UniProt O60885); assay: Liability panel screening by DSF: BRD4; type: binding; conditions: DSF, 20 µM, n=2; read-out: Mean ΔTM BRD4
T10 construct: This panel comprised ten highly ligandable kinases and bromodomains; made in house
Method in brief: as §1

[5] = known off-target outside the NR family at the recommended concentration; ref Supplementary Table 1 (superscript references); cited from earlier work
HEK293T cells [6] = assay: Cytotoxicity: metabolic activity (WST-8 / CCK-8 assay); conditions: 1 µM; HEK293T, 24 h; WST-8; normalized to 0.1% DMSO; single replicates
Protocol: Cells were incubated with the test compounds at the indicated concentrations solubilized with 0.1% DMSO for 24 h. Growth-rate was determined based on the change in confluence over 24 h normalized to the change in confluence of cells treated with the 0.1% DMSO control (n = 10). Metabolic activity was determined with a water-soluble tetrazolium-8 (WST-8) assay (n = 8) after 24 h treatment. Apoptotic cells were detected with a fluorogenic DNA dye coupled to the caspase-3/7 recognition sequence (DEVD) after 24 h treatment and the apoptotic cell count was normalized to 0.1% DMSO treated cells (n = 6).
HEK293T cells (German Collection of Microorganisms and Cell Culture GmbH, DSMZ; #ACC305) were cultured in DMEM high glucose, supplemented with 10% fetal calf serum (FCS), sodium pyruvate (1 mM), penicillin (100 µ/mL) and streptomycin (100 µg/mL) at 37 °C and 5% (v/v) CO2, and seeded in pre-coated (10 µg/mL collagen G solution (Merck KgaA; #L7213) for 30 min at 37 °C) 96-well plates (2 × 10^5 cells per well). After 24 h, the cells were treated with the respective NR3 CG compound candidate at the recommended concentration, bexarotene (100 µM) or doxorubicin (30 µM) as positive controls in DMEM high glucose supplemented with 0.1% FCS, penicillin (100 µ/mL), streptomycin (100 µg/mL) and 0.1% DMSO, or 0.1% DMSO alone as an untreated control. Each sample was prepared in at least four biologically independent replicates. […] Thereafter, the medium was aspirated and the cells were incubated for 3 h with 90 µL DMEM high glucose supplemented with 0.2% FCS, penicillin (100 µ/mL) and streptomycin (100 µg/mL) and additionally containing 10 µL Cell Counting Kit 8 solution (CCK-8; MedChemExpress, Monmouth Junction, New York, USA; #HY-K0301), and absorbance was measured at 1 h, 2 h and 3 h of incubation at 450 nm on a Tecan Spark Cyto to assess metabolic activity of the cells. Before drug administration, after the first medium exchange, 24 h after drug administration, and after fluorescence imaging cell confluence was assessed using the Tecan Spark Cyto, to account for changes in cell confluence due to drug administration and cell handling. Compound effects on cell confluence, apoptosis, metabolic activity and necrosis were normalized to the vehicle control of each biological replicate individually.

HEK293T cells [7] = assay: Cytotoxicity: growth-rate (change in confluence over 24 h); conditions: 1 µM, normalized to 0.1% DMSO control, single replicates (n=1...)

T1 sequence (P00519 whole entry, species assumed): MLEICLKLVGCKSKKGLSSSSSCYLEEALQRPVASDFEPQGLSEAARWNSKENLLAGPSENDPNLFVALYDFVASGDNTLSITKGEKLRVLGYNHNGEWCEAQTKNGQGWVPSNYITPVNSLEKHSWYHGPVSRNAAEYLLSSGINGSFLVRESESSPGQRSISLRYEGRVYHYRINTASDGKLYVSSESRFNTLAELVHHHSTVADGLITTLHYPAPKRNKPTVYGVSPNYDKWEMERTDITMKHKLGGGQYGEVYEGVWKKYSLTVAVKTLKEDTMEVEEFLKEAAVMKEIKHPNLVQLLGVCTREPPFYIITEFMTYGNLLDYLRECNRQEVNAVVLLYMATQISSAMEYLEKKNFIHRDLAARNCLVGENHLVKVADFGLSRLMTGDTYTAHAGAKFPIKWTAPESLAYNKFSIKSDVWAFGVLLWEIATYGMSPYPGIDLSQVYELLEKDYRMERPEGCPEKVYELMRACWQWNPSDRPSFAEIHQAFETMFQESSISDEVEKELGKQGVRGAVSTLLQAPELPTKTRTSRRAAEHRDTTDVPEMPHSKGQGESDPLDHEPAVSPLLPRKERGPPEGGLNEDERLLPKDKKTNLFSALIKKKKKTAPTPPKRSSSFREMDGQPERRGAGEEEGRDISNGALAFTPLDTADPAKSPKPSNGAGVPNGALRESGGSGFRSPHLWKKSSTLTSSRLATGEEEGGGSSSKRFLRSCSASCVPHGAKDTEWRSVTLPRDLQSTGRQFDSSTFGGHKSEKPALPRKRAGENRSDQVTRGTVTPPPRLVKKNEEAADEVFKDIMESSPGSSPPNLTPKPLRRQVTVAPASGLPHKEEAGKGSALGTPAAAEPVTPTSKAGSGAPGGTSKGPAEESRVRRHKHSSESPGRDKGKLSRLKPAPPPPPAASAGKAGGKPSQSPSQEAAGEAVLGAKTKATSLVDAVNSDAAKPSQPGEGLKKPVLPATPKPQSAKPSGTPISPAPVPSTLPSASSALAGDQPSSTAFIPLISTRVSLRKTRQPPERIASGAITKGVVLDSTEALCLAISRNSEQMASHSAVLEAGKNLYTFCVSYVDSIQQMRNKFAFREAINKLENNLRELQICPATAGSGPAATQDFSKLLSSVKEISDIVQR

| ΔTm at 20 µM (ABL1) | ΔTm at 20 µM (FGFR3) | SMILES | Apoptosis induction [AI] (HEK293T cells [1]) | activity at 1 µM [2] | Mean NFκB response ([3]; 1 µM, 1,5 h) | Mean NFκB response ([3]; 1 µM, 4,5 h) | Mean NFκB response ([3]; 1 µM, 7,5 h) | Mean NFκB response ([3]; 1 µM, 10,5 h) | Mean NFκB response ([3]; 1 µM, 13,5 h) | Mean NFκB response ([3]; 1 µM, 16,6 h) | Mean NFκB response ([3]; 1 µM, 19,5 h) | Mean NFκB response ([3]; 1 µM, 22,5 h) | Mean NFκB response ([3]; 1 µM, 3 h) | Mean NFκB response ([3]; 1 µM, 6 h) | Mean NFκB response ([3]; 1 µM, 9 h) | Mean NFκB response ([3]; 1 µM, 12 h) | Mean NFκB response ([3]; 1 µM, 15 h) | Mean NFκB response ([3]; 1 µM, 18 h) | Mean NFκB response ([3]; 1 µM, 21 h) | Mean NFκB response ([3]; 1 µM, 24 h) | further results |
| --- | --- | --- | --- | --- | --- | --- | --- | --- | --- | --- | --- | --- | --- | --- | --- | --- | --- | --- | --- | --- | --- |
| -0.21 °C | -0.69 °C | Cc1c(-c2ccc(O)cc2)n(Cc2ccc(OCCN3CCCCCC3)cc2)c2ccc(O)cc12 [Bazedoxifene] | 0.65 and 1.17 and 0.76 and 1.01 and 0.89 and 1.49 | 100% | 2824.44 GFP+-cells/confluence ∙ 1000 | 3791.70 GFP+-cells/confluence ∙ 1000 | 7416.63 GFP+-cells/confluence ∙ 1000 | 14689.03 GFP+-cells/confluence ∙ 1000 | 19525.92 GFP+-cells/confluence ∙ 1000 | 23266.53 GFP+-cells/confluence ∙ 1000 | 26260.00 GFP+-cells/confluence ∙ 1000 | 28446.67 GFP+-cells/confluence ∙ 1000 | 3117.94 GFP+-cells/confluence ∙ 1000 | 5066.30 GFP+-cells/confluence ∙ 1000 | 11293.98 GFP+-cells/confluence ∙ 1000 | 17230.27 GFP+-cells/confluence ∙ 1000 | 21680.82 GFP+-cells/confluence ∙ 1000 | 24611.25 GFP+-cells/confluence ∙ 1000 | 27073.33 GFP+-cells/confluence ∙ 1000 | 29033.33 GFP+-cells/confluence ∙ 1000 | EC50 (NR3A2 (ERβ); (lit.), ref Supplementary Table 1, read-out: Potency [nM] EC50, NR3A2 (ERβ)): 99 ± 53 nM; NF-κB activity (inflammatory response to ionomycin/PMA) [3]: reducing the inflammatory response; ΔTm at 20 µM (MAPK1): 0.08 °C; ΔTm at 20 µM (GSK3B): 0.0162 °C; ΔTm at 20 µM (CDK2): -0.64 °C; Necrosis induction [NI] (HEK293T cells [4]): 1.13 and 0.86 and 0.78 and 1.09; EC50 (NR3A1 (ERα); read-out: Potency [nM] EC50, NR3A1 (ERα)): 26 ± 14 nM; ΔTm at 20 µM (TRIM24): -2.05 °C; ΔTm at 20 µM (AURKA): 0.09 °C; ΔTm at 20 µM (CSNK1D): 0.42 °C; ΔTm at 20 µM (BRPF1): -0.07 °C; ΔTm at 20 µM (BRD4): 0.43 °C |
| -4.09 °C | -3.24 °C | C[C@]12CC[C@@H]3c4ccc(O)cc4C[C@@H](CCCCCCCCC[S+]([O-])CCCC(F)(F)C(F)(F)F)[C@H]3[C@@H]1CC[C@@H]2O (stereo partly shown) [Fulvestrant] | 0.62 (2×) and 0.98 and 0.59 and 0.64 and 0.41 | 89% | 2679.37 GFP+-cells/confluence ∙ 1000 | 3148.36 GFP+-cells/confluence ∙ 1000 | 4671.22 GFP+-cells/confluence ∙ 1000 | 6295.62 GFP+-cells/confluence ∙ 1000 | 7325.42 GFP+-cells/confluence ∙ 1000 | 8293.33 GFP+-cells/confluence ∙ 1000 | 8696.67 GFP+-cells/confluence ∙ 1000 | 9540.00 GFP+-cells/confluence ∙ 1000 | 2744.06 GFP+-cells/confluence ∙ 1000 | 3642.03 GFP+-cells/confluence ∙ 1000 | 5613.40 GFP+-cells/confluence ∙ 1000 | 7011.92 GFP+-cells/confluence ∙ 1000 | 8097.95 GFP+-cells/confluence ∙ 1000 | 8436.67 GFP+-cells/confluence ∙ 1000 | 9413.33 GFP+-cells/confluence ∙ 1000 | 10080.00 GFP+-cells/confluence ∙ 1000 | IC50 (NR3A2 (ERβ); (lit.), ref Supplementary Table 1, read-out: Potency [nM] IC50, NR3A2 (ERβ)): 4 nM; rel. activity from literature, NR3A2 (ERβ): % rem. act. of estradiol (NR3A2 (ERβ); rem. act. of estradiol): 9%; Other off-target at recom. conc. [5]: sEH; NF-κB activity (inflammatory response to ionomycin/PMA) [3]: reducing the inflammatory response; ΔTm at 20 µM (MAPK1): -12 °C; ΔTm at 20 µM (GSK3B): 0.72 °C; ΔTm at 20 µM (CDK2): 0 °C; Necrosis induction [NI] (HEK293T cells [4]): 0.62 and 0.70 and 0.56 and 0.98; Metabolic activity [MA] (HEK293T cells [6]): 0.95 (2×) and 1.00 and 1.04 and 1.03 and 0.99 and 1.20 (2×); rel. activity from literature, NR3A1 (ERα): % ERα remaining (NR3A1 (ERα); ERα remaining (degrader), ref Supplementary Table 1): 18%; ΔTm at 20 µM (AURKA): -0.16 °C; ΔTm at 20 µM (CSNK1D): -4.77 °C; Growth rate [GR] (HEK293T cells [7]): 0.67 and 2.29 and 0.97 and 0.95 and 0.64 and 0.78 and 0.76 and 0.84 and 1.55 and 3.07; ΔTm at 20 µM (BRPF1): 0 °C; ΔTm at 20 µM (BRD4): -2.93 °C |

Source: publication PMC11790914, “Chemogenomics for steroid hormone receptors (NR3)” (Communications Chemistry, 2025)
